According to ChEMBL document CHEMBL4261596, “Growth inhibition of human ovarian carcinoma by a novel AvidinOX-anchored biotinylated camptothecin derivative” (Bioorg Med Chem Lett, 2018):
The source made the active and inactive calls. The rule behind the calls is not given here.

Tests used:
[1] = system: A-431; test: Antiproliferative activity against human A431 cells; format: functional, cell-based
[2] = system: Mus musculus; test: Toxicity in Nu/Nu intratumorally dosed mouse xenografted with human […] cells assessed as effect on body weight administered as single dose starting from day 18 post tumor injection and measured for 50 days post dose using avidinOX conjugated compound; format: organism-based; conditions: in vivo, other, 1200 h
[3] = system: SK-OV-3; test: Antitumor activity against human SKOV3 cells xenografted in intratumorally dosed Nu/Nu mouse assessed as inhibition of tumor volume administered as single dose and monitored for 2 weeks starting from day 18 post tumor injection and measured after 32 days post dose using avidinOX conjugated compound; format: functional
[4] = biological target: Streptavidin (Streptomyces avidinii) (UniProt P22629); test: Binding affinity to Streptomyces avidinii streptavidin assessed as reduction in biotinylated-alkaline phosphatase (unknown origin) binding at 1 to 1000 uM by ELISA
[5] = system: Mus musculus; test: Toxicity in Nu/Nu intratumorally dosed mouse xenografted with human […] cells assessed as effect on body weight administered as single dose starting from day 18 post tumor injection and measured for 50 days post dose; format: organism-based; conditions: in vivo, other, 1200 h
[6] = system: SK-OV-3; test: Antitumor activity against human SKOV3 cells xenografted in intratumorally dosed Nu/Nu mouse assessed as inhibition of tumor volume administered as single dose and monitored for 2 weeks starting from day 18 post tumor injection and measured after 32 days post dose; format: functional

Streptavidin (Streptomyces avidinii), sequence (P22629 whole entry): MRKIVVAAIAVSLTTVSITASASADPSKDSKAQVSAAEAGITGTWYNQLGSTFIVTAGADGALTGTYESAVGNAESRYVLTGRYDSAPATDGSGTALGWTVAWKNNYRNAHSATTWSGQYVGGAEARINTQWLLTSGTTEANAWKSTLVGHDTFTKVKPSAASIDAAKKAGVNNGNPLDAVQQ

- IC50 [1]: 9.2 nM
- Activity [4]: Active
SMILES: CC[C@@]1(OC(=O)OCCSSCCNC(=O)CCCC[C@@H]2SC[C@@H]3NC(=O)N[C@@H]32)C(=O)OCc2c1cc1n(c2=O)Cc2c-1nc1ccccc1c2/C=N/OC(C)(C)C
- Activity [2]: Non-Toxic
- TGI [3]: 68%
- Activity [5]: Non-Toxic
- TGI [6]: 48%
